Organism: Rattus norvegicus
Test: Open TG-GATES - Regimen: Daily Repeat
Format: toxicity, organism-based, Sprague-Dawley
Design: regimen Daily Repeat, gender Male, age 6 weeks
Conditions: in vivo, po, 300 mg/kg, route gavage, dose level Middle; for APTT / Bas / Eos / Fbg / Hb / Ht / Lym / MCH / MCHC / MCV / Mono / Neu / PT / Plat / RBC / Ret / WBC: tissue Blood; for KIDNEY_L / KIDNEY_R / KIDNEY_TOTAL: tissue Kidney; for LIVER: tissue Liver; for A/G / ALP / ALT / AST / BUN / CRE / Ca / Cl / DBIL / GLC / IP / K / LDH / Na / PL / RALB / TBIL / TC / TG / TP / gamma-GTP: tissue Plasma

Structure (SMILES): C[C@H]1O[C@H](O[C@H]2[C@H](O)[C@@H](O)[C@@H](O[C@H]3[C@H](O)[C@@H](O)C(O)O[C@@H]3CO)O[C@@H]2CO)[C@H](O)[C@@H](O)[C@@H]1N[C@H]1C=C(CO)[C@@H](O)[C@H](O)[C@H]1O (some centres not stated) [ACARBOSE]
- TERMINAL_BW (72 h, time 3 day): 230.6 g
- APTT (72 h, time 3 day): 16.3 s
- Bas (72 h, time 3 day): 0.2%
- Eos (72 h, time 3 day): 1%
- Fbg (72 h, time 3 day): 299.4 mg/dL
- Hb (72 h, time 3 day): 13.6 g/dL
- Ht (72 h, time 3 day): 41%
- Lym (72 h, time 3 day): 76.6%
- MCH (72 h, time 3 day): 21 pg
- MCHC (72 h, time 3 day): 33.3%
- MCV (72 h, time 3 day): 63 fL
- Mono (72 h, time 3 day): 3%
- Neu (72 h, time 3 day): 18.4%
- PT (72 h, time 3 day): 13 s
- Plat (72 h, time 3 day): 120.6 x10_4/uL
- RBC (72 h, time 3 day): 650.8 x10_4/ul
- Ret (72 h, time 3 day): 7.2%
- WBC (72 h, time 3 day): 104.1 x10_2/uL
- KIDNEY_L (72 h, time 3 day): 1.1 g
- KIDNEY_R (72 h, time 3 day): 1.1 g
- KIDNEY_TOTAL (72 h, time 3 day): 2.1 g
- LIVER (72 h, time 3 day): 11.2 g
- A/G (72 h, time 3 day): 0.9
- ALP (72 h, time 3 day): 1565.8 IU/L
- ALT (72 h, time 3 day): 39.4 IU/L
- AST (72 h, time 3 day): 67.2 IU/L
- BUN (72 h, time 3 day): 12.6 mg/dL
- CRE (72 h, time 3 day): 0.2 mg/dL
- Ca (72 h, time 3 day): 10.7 mg/dL
- Cl (72 h, time 3 day): 103 meq/L
- DBIL (72 h, time 3 day): 0.01 mg/dL
- GLC (72 h, time 3 day): 170.8 mg/dL
- IP (72 h, time 3 day): 8.2 mg/dL
- K (72 h, time 3 day): 3.9 meq/L
- LDH (72 h, time 3 day): 89.6 IU/L
- Na (72 h, time 3 day): 140.4 meq/L
- PL (72 h, time 3 day): 148.4 mg/dL
- RALB (72 h, time 3 day): 2.6 g/dL
- TBIL (72 h, time 3 day): 0.06 mg/dL
- TC (72 h, time 3 day): 81 mg/dL
- TG (72 h, time 3 day): 98 mg/dL
- TP (72 h, time 3 day): 5.5 g/dL
- gamma-GTP (72 h, time 3 day): 1.2 IU/L
- TERMINAL_BW ([…], time 7 day): 272.1 g
- TERMINAL_BW ([…], time 14 day): 332.7 g
- TERMINAL_BW ([…], time 28 day): 401.7 g
- APTT ([…], time 7 day): 17.2 s
- Bas ([…], time 7 day): 0%
- Eos ([…], time 7 day): 1%
- Fbg ([…], time 7 day): 323 mg/dL
- Hb ([…], time 7 day): 14.1 g/dL
- Ht ([…], time 7 day): 41.7%
- Lym ([…], time 7 day): 74.6%
- MCH ([…], time 7 day): 21.1 pg
- MCHC ([…], time 7 day): 33.8%
- MCV ([…], time 7 day): 62.4 fL
- Mono ([…], time 7 day): 2.6%
- Neu ([…], time 7 day): 21%
- PT ([…], time 7 day): 13.1 s
- Plat ([…], time 7 day): 128.3 x10_4/uL
- RBC ([…], time 7 day): 669.4 x10_4/ul
- Ret ([…], time 7 day): 6.1%
- WBC ([…], time 7 day): 95.8 x10_2/uL
- APTT ([…], time 14 day): 23.4 s
- Bas ([…], time 14 day): 0%
- Eos ([…], time 14 day): 0.8%
- Fbg ([…], time 14 day): 272.2 mg/dL
- Hb ([…], time 14 day): 14.8 g/dL
- Ht ([…], time 14 day): 44%
- Lym ([…], time 14 day): 78.8%
- MCH ([…], time 14 day): 21 pg
- MCHC ([…], time 14 day): 33.7%
- MCV ([…], time 14 day): 62.2 fL
- Mono ([…], time 14 day): 2%
- Neu ([…], time 14 day): 17.8%
- PT ([…], time 14 day): 13.2 s
- Plat ([…], time 14 day): 126.6 x10_4/uL
- RBC ([…], time 14 day): 706.8 x10_4/ul
- Ret ([…], time 14 day): 5%
- WBC ([…], time 14 day): 105.8 x10_2/uL
- APTT ([…], time 28 day): 20.2 s
- Bas ([…], time 28 day): 0%
- Eos ([…], time 28 day): 1%
- Fbg ([…], time 28 day): 282.8 mg/dL
- Hb ([…], time 28 day): 15.3 g/dL
- Ht ([…], time 28 day): 44.4%
- Lym ([…], time 28 day): 79.6%
- MCH ([…], time 28 day): 20.2 pg
- MCHC ([…], time 28 day): 34.4%
- MCV ([…], time 28 day): 58.6 fL
- Mono ([…], time 28 day): 2%
- Neu ([…], time 28 day): 16%
- PT ([…], time 28 day): 13.7 s
- Plat ([…], time 28 day): 95.8 x10_4/uL
- RBC ([…], time 28 day): 757.4 x10_4/ul
- Ret ([…], time 28 day): 2.2%
- WBC ([…], time 28 day): 88.5 x10_2/uL
- KIDNEY_L ([…], time 7 day): 1.1 g
- KIDNEY_R ([…], time 7 day): 1.1 g
- KIDNEY_TOTAL ([…], time 7 day): 2.3 g
- KIDNEY_L ([…], time 14 day): 1.2 g
- KIDNEY_R ([…], time 14 day): 1.3 g
- KIDNEY_TOTAL ([…], time 14 day): 2.5 g
- KIDNEY_L ([…], time 28 day): 1.4 g
- KIDNEY_R ([…], time 28 day): 1.3 g
- KIDNEY_TOTAL ([…], time 28 day): 2.7 g
- LIVER ([…], time 7 day): 12.7 g
- LIVER ([…], time 14 day): 15.1 g
- LIVER ([…], time 28 day): 16.3 g
- A/G ([…], time 7 day): 0.9
- ALP ([…], time 7 day): 1607 IU/L
- ALT ([…], time 7 day): 50 IU/L
- AST ([…], time 7 day): 77.2 IU/L
- BUN ([…], time 7 day): 16.4 mg/dL
- CRE ([…], time 7 day): 0.2 mg/dL
- Ca ([…], time 7 day): 10.9 mg/dL
- Cl ([…], time 7 day): 104.2 meq/L
- DBIL ([…], time 7 day): 0.012 mg/dL
- GLC ([…], time 7 day): 183.6 mg/dL
- IP ([…], time 7 day): 7.5 mg/dL
- K ([…], time 7 day): 4.2 meq/L
- LDH ([…], time 7 day): 80.6 IU/L
- Na ([…], time 7 day): 142 meq/L
- PL ([…], time 7 day): 147.6 mg/dL
- RALB ([…], time 7 day): 2.6 g/dL
- TBIL ([…], time 7 day): 0.054 mg/dL
- TC ([…], time 7 day): 75 mg/dL
- TG ([…], time 7 day): 91.6 mg/dL
- TP ([…], time 7 day): 5.7 g/dL
- gamma-GTP ([…], time 7 day): 1 IU/L
- A/G ([…], time 14 day): 0.8
- ALP ([…], time 14 day): 1744.6 IU/L
- ALT ([…], time 14 day): 39 IU/L
- AST ([…], time 14 day): 69.8 IU/L
- BUN ([…], time 14 day): 16.2 mg/dL
- CRE ([…], time 14 day): 0.2 mg/dL
- Ca ([…], time 14 day): 10.6 mg/dL
- Cl ([…], time 14 day): 105 meq/L
- DBIL ([…], time 14 day): 0.01 mg/dL
- GLC ([…], time 14 day): 186 mg/dL
- IP ([…], time 14 day): 6.8 mg/dL
- K ([…], time 14 day): 4.1 meq/L
- LDH ([…], time 14 day): 95.2 IU/L
- Na ([…], time 14 day): 142 meq/L
- PL ([…], time 14 day): 141.6 mg/dL
- RALB ([…], time 14 day): 2.7 g/dL
- TBIL ([…], time 14 day): 0.05 mg/dL
- TC ([…], time 14 day): 67.4 mg/dL
- TG ([…], time 14 day): 135.4 mg/dL
- TP ([…], time 14 day): 5.9 g/dL
- gamma-GTP ([…], time 14 day): 1 IU/L
- A/G ([…], time 28 day): 0.8
- ALP ([…], time 28 day): 1170.4 IU/L
- ALT ([…], time 28 day): 46.4 IU/L
- AST ([…], time 28 day): 70.8 IU/L
- BUN ([…], time 28 day): 15.6 mg/dL
- CRE ([…], time 28 day): 0.2 mg/dL
- Ca ([…], time 28 day): 10.8 mg/dL
- Cl ([…], time 28 day): 105 meq/L
- DBIL ([…], time 28 day): 0.012 mg/dL
- GLC ([…], time 28 day): 190.8 mg/dL
- IP ([…], time 28 day): 5.9 mg/dL
- K ([…], time 28 day): 4.1 meq/L
- LDH ([…], time 28 day): 82.6 IU/L
- Na ([…], time 28 day): 142.2 meq/L
- PL ([…], time 28 day): 141.6 mg/dL
- RALB ([…], time 28 day): 2.7 g/dL
- TBIL ([…], time 28 day): 0.048 mg/dL
- TC ([…], time 28 day): 65.4 mg/dL
- TG ([…], time 28 day): 154.8 mg/dL
- TP ([…], time 28 day): 6 g/dL
- gamma-GTP ([…], time 28 day): 1 IU/L

Reference: ChEMBL document CHEMBL3885861, “Open TG-GATES”
